These results are taken from ChEMBL document CHEMBL1201862, “PubChem BioAssay data set” (2004).

Test systems include SK-MEL-28; MDA-MB-435; SW-620; HCC 2998; CAKI-1; A498; RPMI-8226; A549; M14; NCI-H23; UACC-62; MCF7; RXF 393; SNB-19; DU-145; SK-MEL-5; SF-268; HOP-62; HL-60; SF-539.
Assay in all cases: NCI anticancer screen, dose series, 48 h

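Results reflect a 48-hour exposure of cells in 96-well plates to compound at five concentrations. GI50 = concentration required for 50% inhibition of growth.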 Active and inactive are the calls of the source. No stated cut-off is given here; in the data, active = GI50 up to about 1.1 µM and inactive = higher. Non-standard residues stand in square brackets, D forms with d. Residues, ends and D or L forms follow the SMILES beside them. *: point of attachment. Ac5c = NC1(C(=O)O)CCCC1; Boc = CC(C)(C)OC(=O)*; tBu = CC(C)(C)* A value given as a limit tells only on which side of the number the result lay.

Consider `COc1ccc(CN2C[C@H]3[C@@H](CC(=O)O[C@H]3C)CC2=O)cc1`, for which the GI50 in the assay on SK-MEL-28, with MDA-MB-435, in the assay on SW-620, in the assay on HCC 2998, in the assay on CAKI-1 and with A498 was > 100 µM (inactive) each time. For the same compound, the GI50 in the assay on RPMI-8226, in the assay on A549, in the assay with M14, in the assay on NCI-H23, with UACC-62 and with MCF7 was > 100 µM (inactive) throughout. In addition, the GI50 in the assay on RXF 393, in the assay with SNB-19, in the assay with DU-145, in the assay on SK-MEL-5, in the assay with SF-268 and in the assay with HOP-62 was > 100 µM (inactive) throughout.
On to `CCC1=CCC23C(=O)C=CC(=O)C2(C1)C(=O)c1cccc(OC)c1C3=O` (stereo not given), for which the GI50 with SK-MEL-28 was 18.2 µM (inactive); in the assay with MDA-MB-435 it was 17.1 µM (inactive); in the assay with SW-620 it was 15.5 µM (inactive); in the assay on CAKI-1, 13.1 µM (inactive); in the assay on RPMI-8226, 4.41 µM (inactive); with A549 it was 23.8 µM (inactive). For the same compound, the GI50 is 2.73 µM (inactive) in the assay on HL-60; 16 µM (inactive) in the assay with M14; 21.1 µM (inactive) with NCI-H23; 18.4 µM (inactive) in the assay on SF-539; 15.8 µM (inactive) in the assay on UACC-62; 14.3 µM (inactive) with MCF7. Further, the GI50 is 6.38 µM (inactive) in the assay on RXF 393; 23.8 µM (inactive) with SNB-19; 16.9 µM (inactive) in the assay on DU-145; 16.8 µM (inactive) in the assay on SK-MEL-5; 17.6 µM (inactive) in the assay on SF-268; 22.7 µM (inactive) in the assay with HOP-62.
On to `O=c1oc2ccc3ccccc3c2cc1-c1nnc(Nc2ccccc2)s1`, for which the GI50 in the assay on MDA-MB-435 was 78.3 µM (inactive); in the assay with HCC 2998, 44.8 µM (inactive); with CAKI-1, 34 µM (inactive); with A498, 1.27 µM (inactive); in the assay with RPMI-8226 it was 20.1 µM (inactive); with A549, 31.4 µM (inactive). The GI50 in the assay with M14 was 37.2 µM (inactive); in the assay on NCI-H23 it was 31 µM (inactive); with UACC-62, 23.8 µM (inactive); with MCF7 it was 34.8 µM (inactive); with RXF 393, 15.8 µM (inactive); in the assay with SNB-19, 38.4 µM (inactive). In addition, the GI50 with DU-145 is 24.5 µM (inactive); in the assay with SF-268, 61.8 µM (inactive).
Turning to `C/C1=C/C[C@@H](/C(C)=C/c2csc(C)n2)OC(=O)C[C@H](O)C(C)(C)C(=O)[C@H](C)[C@@H](O)[C@@H](C)CCC1` [EPOTHILONE D], the GI50 in the assay with MDA-MB-435, in the assay with SW-620, with HCC 2998, in the assay on CAKI-1, in the assay on RPMI-8226 and in the assay with A549 was < 0.0001 µM (active) in each case. For the same compound, the GI50 in the assay with M14, with NCI-H23, in the assay on SF-539, in the assay on UACC-62, in the assay on MCF7 and in the assay with RXF 393 was < 0.0001 µM (active) each time. In addition, the GI50 in the assay with SNB-19, in the assay with DU-145, in the assay with SK-MEL-5, in the assay with SF-268 and with HOP-62 was < 0.0001 µM (active) each time.
Regarding `Cc1ccc(/C=C2\N=C(N3CCCC(CO)C3)NC2=O)cc1` (stereo not given), the GI50 in the assay with SK-MEL-28, in the assay on MDA-MB-435, with SW-620, in the assay on HCC 2998, in the assay on CAKI-1 and in the assay on RPMI-8226 was > 100 µM (inactive) in each case. Also, the GI50 in the assay on A549, with HL-60, with M14, in the assay on NCI-H23, in the assay on SF-539 and in the assay with UACC-62 was > 100 µM (inactive) in each case. The GI50 in the assay with MCF7, in the assay on RXF 393, with SNB-19, in the assay on DU-145, with SK-MEL-5 and in the assay with SF-268 was > 100 µM (inactive) each time. Further, the GI50 in the assay with HOP-62 is > 100 µM (inactive).
As to `O=S(=O)(Nc1ccc2ccc3cccc4ccc1c2c34)c1ccccc1`, the GI50 in the assay on SK-MEL-28 is > 100 µM (inactive); in the assay on MDA-MB-435 it was 3.82 µM (inactive); in the assay on SW-620 it was 30.1 µM (inactive); in the assay on CAKI-1 it was 6 µM (inactive); in the assay on RPMI-8226, 6.34 µM (inactive); in the assay on A549, 52.8 µM (inactive). Moreover, the GI50 was 37.7 µM (inactive) in the assay with HL-60; > 100 µM (inactive) with M14; 96.6 µM (inactive) with NCI-H23; 25.6 µM (inactive) in the assay with SF-539; 8.95 µM (inactive) with UACC-62; 43.4 µM (inactive) in the assay with MCF7. The GI50 with RXF 393 is > 100 µM (inactive); with SNB-19, 85.5 µM (inactive); in the assay on DU-145 it was > 100 µM (inactive); in the assay on SK-MEL-5, 14.1 µM (inactive); with SF-268 it was 43.6 µM (inactive); in the assay with HOP-62 it was 33.3 µM (inactive).
In the case of `NC(=O)NCCCC(NC(=O)OCCCCCCn1ccc(=O)[nH]c1=O)C(=O)O` (stereo not given), the GI50 in the assay on SK-MEL-28 was > 100 µM (inactive); in the assay on MDA-MB-435 it was > 100 µM (inactive); with SW-620, > 100 µM (inactive); with HCC 2998, > 100 µM (inactive); in the assay with CAKI-1, > 100 µM (inactive); in the assay with RPMI-8226, 34.5 µM (inactive). Also, the GI50 in the assay with A549, in the assay with HL-60, in the assay with M14, in the assay on NCI-H23, with SF-539 and in the assay on UACC-62 was > 100 µM (inactive) each time. In addition, the GI50 in the assay on MCF7, in the assay with RXF 393, in the assay on SNB-19, in the assay on DU-145, in the assay on SF-268 and in the assay on HOP-62 was > 100 µM (inactive) each time.
In the case of `Cn1c2ccccc2c(=NNc2cccc(C(=O)O)c2)c2ccccc21`, the GI50 is 19.2 µM (inactive) in the assay with SK-MEL-28; 13.3 µM (inactive) with MDA-MB-435; 5.64 µM (inactive) in the assay on SW-620; 3.3 µM (inactive) in the assay on HCC 2998; 25.1 µM (inactive) with CAKI-1; 5.96 µM (inactive) in the assay on RPMI-8226. The GI50 in the assay on A549 was 5.75 µM (inactive); in the assay on HL-60, 11.3 µM (inactive); with M14 it was 19.6 µM (inactive); in the assay on NCI-H23, 9.95 µM (inactive); in the assay on SF-539, 19.2 µM (inactive); with UACC-62, 16.9 µM (inactive). Besides, the GI50 was 3.4 µM (inactive) with MCF7; 6.38 µM (inactive) in the assay on RXF 393; 6.84 µM (inactive) in the assay on SNB-19; 11.9 µM (inactive) with DU-145; 14.7 µM (inactive) in the assay with SK-MEL-5; 10.9 µM (inactive) in the assay with SF-268. In addition, the GI50 in the assay with HOP-62 was 12.7 µM (inactive).
As to `Cc1ccc2nc(-c3ccccc3)cc(=O)n2c1`, the GI50 with SK-MEL-28, with MDA-MB-435, with SW-620, with HCC 2998, in the assay on RPMI-8226 and with A549 was > 100 µM (inactive) throughout. In addition, the GI50 with HL-60, in the assay on M14, with NCI-H23, with SF-539, with UACC-62 and in the assay on MCF7 was > 100 µM (inactive) throughout. The GI50 in the assay with RXF 393, with SNB-19, with DU-145, in the assay on SK-MEL-5, in the assay with SF-268 and in the assay with HOP-62 was > 100 µM (inactive) throughout.
Regarding `CC1(C)OC(=O)C2(O1)C(=O)C1CCCCC12` (stereo not given), the GI50 is > 100 µM (inactive) with SK-MEL-28; > 100 µM (inactive) with MDA-MB-435; > 100 µM (inactive) in the assay on SW-620; > 100 µM (inactive) in the assay with HCC 2998; 10.2 µM (inactive) in the assay with CAKI-1; 4.78 µM (inactive) in the assay with A498. Also, the GI50 in the assay on RPMI-8226 is > 100 µM (inactive); in the assay on A549, 26.9 µM (inactive); in the assay with M14 it was > 100 µM (inactive); with NCI-H23, > 100 µM (inactive); in the assay on UACC-62, 82.4 µM (inactive); in the assay with MCF7 it was 5.75 µM (inactive). The GI50 was 4.89 µM (inactive) with RXF 393; 8.39 µM (inactive) in the assay on SNB-19; > 100 µM (inactive) in the assay on DU-145; > 100 µM (inactive) with SK-MEL-5; > 100 µM (inactive) with SF-268; 62.8 µM (inactive) in the assay on HOP-62.
On to `CC(OC(C)(C)C)C1NC(=O)C(CCCCNC(=O)OC(C)(C)C)NC(=O)C(Cc2c[nH]c3ccccc23)NC(=O)C(Cc2ccccc2)NC(=O)C2(CCCC2)NC(=O)C(Cc2ccccc2)NC1=O` (stereo not given) (cyclo([Ac5c]FWK(Boc)T(tBu)F); configuration not given here), for which the GI50 in the assay on SK-MEL-28 was 22.3 µM (inactive); in the assay with MDA-MB-435, 14.7 µM (inactive); in the assay with SW-620 it was 22.9 µM (inactive); in the assay with HCC 2998, 19 µM (inactive); in the assay on CAKI-1, 42.9 µM (inactive); in the assay with RPMI-8226, 10.7 µM (inactive). Besides, the GI50 with HL-60 is 17.5 µM (inactive); in the assay on M14, 16.7 µM (inactive); in the assay with NCI-H23, 36.9 µM (inactive); in the assay with SF-539 it was 36.9 µM (inactive); in the assay with UACC-62, 21.6 µM (inactive); with MCF7 it was 18.5 µM (inactive). In addition, the GI50 in the assay with RXF 393 was 37.5 µM (inactive); in the assay with SNB-19, 34.2 µM (inactive); in the assay with DU-145, 50.9 µM (inactive); with SK-MEL-5, 15.9 µM (inactive); in the assay with SF-268, 16.6 µM (inactive); in the assay on HOP-62 it was 49.4 µM (inactive).
